Molecular target: CDK2/Cyclin E1 full length (Homo sapiens (Human), UniProt P24941)
Experiment: CDK2/Cyclin E1 full length mobility shift assay
Format: biochemical

`CC(CC(F)(F)F)N(C)C(=O)O[C@@H]1CC[C@H](c2cc(NC(=O)c3cnnn3C)n[nH]2)C1` (single isomer, unassigned) [Example 412] gave a Ki of 0.19 nM.

With `Cc1nc(CC(=O)Nc2cc([C@H]3CC[C@@H](OC(=O)NC(C)(C)C)C3)[nH]n2)ccc1Cl` [Example 312, (1R,3S)-3-(3-{[(5-chloro-6-methylpyridin-2-yl)acetyl]amino}-1H-pyrazol-5-yl)cyclopentyl tert-butylcarbamate] the Ki was 0.43 nM.

`O=C(Cc1cc(F)cc(F)c1)Nc1cc([C@@H]2CC[C@H](OC(=O)NC[C@H]3C[C@H](O)C3)C2)[nH]n1` [Example 576, (1S,3R)-3-(3-{[(3,5-difluorophenyl)acetyl]amino}-1H-pyrazol-5-yl)cyclopentyl [(trans-3-hydroxycyclobutyl)methyl] carbamate] showed a Ki of 1.99 nM.

`COc1cc(CC(=O)Nc2cc([C@H]3CC[C@@H](OC(=O)N[C@@H](C)[C@H](C)F)C3)[nH]n2)ccn1` (single isomer, unassigned) [Example 384, (1R,3S)-3-(3-{[(2-methoxypyridin-4-yl)acetyl]amino}-1H-pyrazol-5-yl)cyclopentyl [(2S*,3S*)-3-fluorobutan-2-yl]carbamate] was tested, and the Ki was 1.24 nM.

`Cn1ncc(CC(=O)Nc2cc([C@H]3CC[C@@H](OC(=O)NC(C)(C)C)C3)[nH]n2)n1` [Example 110] showed a Ki of 0.29 nM.

With `Cc1cnc(CC(=O)Nc2cc([C@H]3CC[C@@H](OC(=O)NC(C)CC(F)F)C3)[nH]n2)o1` (single isomer, unassigned) [Example 96] the Ki was 2.05 nM.

`O=C(Cc1ccc(C(F)(F)F)nc1)Nc1cc([C@@H]2CC[C@H](OC(=O)NCC3CCOCC3)C2)[nH]n1` [Example 514, (1S,3R)-3-[3-({[6-(trifluoromethyl)pyridin-3-yl]acetyl}amino)-1H-pyrazol-5-yl]cyclopentyl (tetrahydro-2H-pyran-4-ylmethyl)carbamate] gave a Ki of 2.78 nM.

`Cc1ccc(F)c(CC(=O)Nc2cc([C@H]3CC[C@@H](OC(=O)NC4(C)CC4)C3)[nH]n2)n1` [Example 435, (1R,3S)-3-(3-{[(3-fluoro-6-methylpyridin-2-yl)acetyl]amino}-1H-pyrazol-5-yl)cyclopentyl (1-methylcyclopropyl)carbamate] gave a Ki of 1.49 nM.

In the case of `Cc1ncc(CC(=O)Nc2cc([C@@H]3CC[C@H](OC(=O)NC4CCOCC4)C3)[nH]n2)s1` [Example 500, (1S,3R)-3-(3-{[(2-methyl-1,3-thiazol-5-yl)acetyl]amino}-1H-pyrazol-5-yl)cyclopentyl tetrahydro-2H-pyran-4-ylcarbamate], the Ki is reported as 2.36 nM.

In the case of `CC[C@H](C)NC(=O)O[C@@H]1CC[C@H](c2cc(NC(=O)Cc3cccnc3OC)n[nH]2)C1` [Example 345, (1R,3S)-3-(3-{[(2-methoxypyridin-3-yl)acetyl]amino}-1H-pyrazol-5-yl)cyclopentyl (2S)-butan-2-ylcarbamate], the Ki is reported as 2.66 nM.

Work on `COc1cnc(CC(=O)Nc2cc([C@H]3CC[C@@H](OC(=O)NC(C)C)C3)[nH]n2)cn1` [Example 277, (1R,3S)-3-(3-{[(5-methoxypyrazin-2-yl)acetyl]amino}-1H-pyrazol-5-yl)cyclopentyl propan-2-ylcarbamate] yielded a Ki of 0.98 nM.

Molecule `COc1cc(CC(=O)Nc2cc([C@H]3CC[C@@H](OC(=O)NCC(F)F)C3)[nH]n2)ccn1` [Example 251, (1R,3S)-3-(3-{[(2-methoxypyridin-4-yl)acetyl]amino}-1H-pyrazol-5-yl)cyclopentyl (2,2-difluoroethyl)carbamate] has a Ki of 1.83 nM.

For `O=C(Cc1cc(F)cc(F)c1)Nc1cc([C@@H]2CC[C@H](OC(=O)NC[C@H]3CCCO3)C2)[nH]n1` [Example 498, (1S,3R)-3-(3-{[(3,5-difluorophenyl)acetyl]amino}-1H-pyrazol-5-yl)cyclopentyl [(2R)-tetrahydrofuran-2-ylmethyl]carbamate], the Ki was 4.28 nM.

With `O=C(Cc1cc(F)cc(F)c1)Nc1cc([C@@H]2CC[C@H](OC(=O)NC[C@@H]3C[C@H]3CO)C2)[nH]n1` [Example 578, (1S,3R)-3-(3-{[(3,5-difluorophenyl)acetyl]amino}-1H-pyrazol-5-yl)cyclopentyl {[(1R,2R)-2-(hydroxymethyl)cyclopropyl]-methyl}carbamate] the Ki was 3.64 nM.

Source: patent US11014911B2, “CDK2 inhibitors” (Pfizer Inc., priority 2019, dated 2021)
